Reference: patent publication US20060178357A1, “Chphalosporin-derived mercaptans as inhibitors of serine and metallo-beta-lactamases” (priority 2005, published 2006)
Blank lines part the entries; values can stand above or below the molecule they belong to.

Tests used:
[1] = test system: class B β-lactamases (L1 metallo-β-lactamase derived from Stenotrophomonas maltophilia; metallo-β-lactamase derived from Bacillus cereus); assay: β-lactamase inhibition (IC50, nitrocefin hydrolysis) against class B metallo-β-lactamases; type: biochemical; details: 4 min incubation of inhibitor and enzyme, substrate nitrocefin, 480 nm; statement in words summarising Table 1
Method: (§1) Representative compounds of the invention were evaluated as inhibitors of two serine β-lactamases: Enterobacter cloacae P99 (class C), TEM-1 (class A), as well as two class B enzymes: the L1 metallo-β-lactamse derived from Stenotrophomonas maltophilia) and the metallo-β-lactamase derived from the Bacillus cereus microorganism. The IC50 value of each compound was determined as follows. Assay method involves 4 min incubation of a solution of inhibitor and enzyme (0.1 to 1 μM in enzyme), followed by transfer of an aliquot into a dilute solution of the substrate nitrocefin. Hydrolysis is monitored spectrophotometrically at 480 nm for 1 min. The rate is constant throughout this period. Error is ±10%, based on multiple experiments.

[2] = target: Enterobacter cloacae P99 (class C) β-lactamase (Enterobacter cloacae, UniProt P05364); assay: β-lactamase inhibition (IC50, nitrocefin hydrolysis) against class C serine β-lactamase; type: biochemical; details: 4 min incubation of inhibitor and enzyme, substrate nitrocefin, 480 nm; comparison in words summarising Table 1
Sequence of Enterobacter cloacae P99 (class C) β-lactamase (P05364 21-381): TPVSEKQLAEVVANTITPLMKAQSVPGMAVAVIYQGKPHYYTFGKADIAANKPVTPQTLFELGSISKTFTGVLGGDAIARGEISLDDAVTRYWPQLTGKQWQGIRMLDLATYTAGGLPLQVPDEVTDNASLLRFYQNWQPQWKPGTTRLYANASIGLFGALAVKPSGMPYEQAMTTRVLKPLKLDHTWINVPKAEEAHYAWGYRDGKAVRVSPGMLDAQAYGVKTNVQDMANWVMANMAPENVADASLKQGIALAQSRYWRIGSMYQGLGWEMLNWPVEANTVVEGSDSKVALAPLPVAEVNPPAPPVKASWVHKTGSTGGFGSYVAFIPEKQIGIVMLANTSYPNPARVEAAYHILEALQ
Method: as §1

SMILES: CC(=O)OCC1=C(C(=O)[O-])N2C(=O)C(CS)C2SC1.[Na+] (stereo not drawn) [Compound 12, Sodium salt of 7β-(mercaptomethyl)cephalosporanate]
ability to inhibit the class B β-lactamases [1]: possess the ability to inhibit the class B β-lactamases

SMILES: CC(=O)OCC1=C(C(=O)[O-])N2C(=O)C(CS)C2S(=O)(=O)C1.[Na+] (stereo not drawn) [Compound 15, Sodium salt of 7β-(mercaptomethyl)cephalosporanate-1,1-dioxide]
ability to inhibit the class B β-lactamases [1]: possess the ability to inhibit the class B β-lactamases

SMILES: CC(=O)OCC1=C(C(=O)[O-])N2C(=O)C(CS)C2[S+]([O-])C1.[Na+] (stereo not drawn) [Compound 17, Sodium salt of 7β-(mercaptomethyl)cephalosporanate-1β-oxide]
ability to inhibit the class B β-lactamases [1]: possess the ability to inhibit the class B β-lactamases

SMILES: CC(=O)OCC1=C(C(=O)[O-])N2C(=O)C(CS)C2[S+]([O-])C1.[Na+] (stereo not drawn) [Compound 19, Sodium salt of 7α-(mercaptomethyl)cephalosporanate-1β-oxide]
ability to inhibit the class B β-lactamases [1]: possess the ability to inhibit the class B β-lactamases

SMILES: CC(=O)OCC1=C(C(=O)[O-])N2C(=O)C(CS)C2S(=O)(=O)C1.[Na+] (stereo not drawn) [Compound 22, Sodium salt of 7α-(mercaptomethyl)cephalosporanate-1,1-dioxide]
inhibition activity against a representative class C β-lactamase relative to tazobactam [2]: superior to tazobactam
ability to inhibit the class B β-lactamases [1]: possess the ability to inhibit the class B β-lactamases

SMILES: CC(=O)OCC1=C(C(=O)[O-])N2C(=O)C(CS)C2SC1.[Na+] (stereo not drawn) [Compound 26, Sodium salt of 7α-(mercaptomethyl)cephalosporanate]
inhibition activity against a representative class C β-lactamase relative to tazobactam [2]: superior to tazobactam
ability to inhibit the class B β-lactamases [1]: possess the ability to inhibit the class B β-lactamases

SMILES: CC(=O)OCC1=C(C(=O)[O-])N2C(=O)C(CS)C2[S+]([O-])C1.[Na+] (stereo not drawn) [Compound 29, Sodium salt of 7α-(mercaptomethyl)cephalosporanate-1α-oxide]
inhibition activity against a representative class C β-lactamase relative to tazobactam [2]: superior to tazobactam
ability to inhibit the class B β-lactamases [1]: possess the ability to inhibit the class B β-lactamases

ability to inhibit the class B β-lactamases [1]: does not possess such ability
SMILES: C[C@]1(Cn2ccnn2)[C@H](C(=O)O)N2C(=O)C[C@H]2S1(=O)=O [tazobactam, reference compound]
